In assay [1] the test system is isolated rat aorta. Description: Test A: activity against contractions induced by low K⁺ concentrations (20 mM K⁺) in the isolated rat aorta. The class given is cell-based. The settings on record: concentration reducing the 20 mM K⁺-induced contraction by 90%; rat thoracic aorta strips denuded of endothelium; read-out: Activity Test A EC₉₀. How it is done: The test methods used were adapted from those described by Winslow et al [Eur.J.Pharmacol., 131, 219-228 (1986)] and Karaki [J.Pharmacol. Methods, 18, 1-21 (1987)] for differentiating vaso-relaxant activity.
Test A : Activity against contractions induced by low K⁺ concentrations in the isolated rat aorta
Thoracic aorta was removed from rats and transverse strips, denuded of endothelium, were suspended in a bath containing Krebs solution. The tension was recorded and a contraction induced by addition of 20 mM K⁺ (potassium ion) to the bathing solution. The test compound was added to the bath as a solution in increasing cumulative concentration. The concentration in the bathing solution of the test compound which reduced the K⁺-induced contraction by 90% was determined and expressed in µM as the effective concentration (EC₉₀), given in Table I.

For assay [2], the system named is blood pressure. Description: Blood pressure in the anaesthetised guinea pig (same experiment as bronchospasm test). The settings on record: nebulised aerosol for 1 minute, control 42. The class given is in vivo. How it is done: (§1) In in vivo tests in the anaesthetised guinea pig, performed according to the method of Dixon W.E. and Brodie T.G., J. Physiol 29, pp 97-173 (1903), Compound BD affected histamine-induced bronchospasm and blood pressure as follows:-
(§2) A nebulised aerosol generated from an aqueous solution having a given concentration was administered for 1 minute to the anaesthetised guinea pigs.

The subject of assay [3] is histamine-induced bronchospasm. Description: Histamine-induced bronchospasm in the anaesthetised guinea pig (method of Dixon and Brodie), nebulised aerosol. The class given is in vivo. The settings on record: nebulised aerosol for 1 minute, control 80. The procedure:
as §1, §2

Regarding `CNC(=S)[C@]1(c2cnc3ccccc3c2)CCCC/C1=N\N1CCC[C@H]1COC` [Compound J, (2S)-anti-2-(methoxymethyl)-1-[2′-(3-quinolinyl)-2′-methylthiocarbamoylcyclohexylideneamino]pyrrolidine], the EC90 in assay [1] was determined as 300 nM.

For the molecule `CNC(=S)C1(c2ccc(Cl)nc2)CCCCC1=O` (racemic) [Compound R, (±)-N-methyl-2-oxo-1-(6-chloropyrid-3-yl)cyclohexanecarbothioamide], the EC90 in assay [1] stood at 240 nM.

`CNC(=S)C1(c2cnc3ccccc3c2)CCCCC1=O` (racemic) [Compound B, (±)-N-methyl-2-oxo-1-(3-quinolinyl)cyclohexanecarbothioamide]: the EC90 in assay [1] stood at 70 nM. As for `CNC(=S)C1(c2cncc(Br)c2)CCCCC1=O` (racemic) [Compound S, (±)-N-methyl-2-oxo-1-(5-bromopyrid-3-yl)cyclohexanecarbothioamide], the EC90 in assay [1] was found to be 400 nM. Regarding “(±)-trans-N-methyl-2-hydroxy-1-(3-pyridyl)cyclohexanecarbothioamide”, in assay [1], the EC90 worked out at 7500 nM. Same read-out and setting: as for `CCNC(=S)C1(c2cccnc2)CCCCC1=O` (racemic) [T, (±)-N-ethyl-2-oxo-1-(3-pyridyl)cyclohexanecarbothioamide], the figure is 300 nM. Same read-out and setting: as for `CNC(=S)C1(c2cccnc2)CCCCC1=O` (racemic) [Compound A, (±)-N-methyl-2-oxo-1-(3-pyridyl)cyclohexanecarbothioamide], the figure is 800 nM; as for “(±)-cis-N-methyl-2-hydroxy-1-(3-pyridyl)cyclohexanecarbothioamide”, 24000 nM. Same read-out and setting: as for `CNC(=S)C1(c2cccnc2)CCCC/C1=N\OCc1ccccc1` (racemic) [Compound H, (±)-anti-N-methyl-2-benzyloxyimino-1-(3-pyridyl)cyclohexanecarbothioamide], the figure is 10 nM; as for `CNC(=S)C1(c2cccnc2)CCCC/C1=N\OC` (racemic) [Compound G, (±)-anti-N-methyl-2-methoxyimino-1-(3-pyridyl)cyclohexanecarbothioamide], 300 nM. As for `CNC(=S)C1(c2cccnc2)CCC/C1=N\OCc1ccc(F)cc1` (racemic) [Compound BD, (±)-anti-N-methyl-2-(4-fluorobenzyloxyimino)-1-(3-pyridyl)cyclopentanecarbothioamide], the B.P. is recorded as 49 mmHg in assay [2] (100µg/ml aqueous solution), 43 mmHg in assay [2] (300µg/ml aqueous solution) and 40 mmHg in assay [2] (1000µg/ml aqueous solution). Further, the “% maximum bronchospasm” value was found to be 76% in assay [3] (100µg/ml aqueous solution), 46% in assay [3] (300µg/ml aqueous solution) and 22% in assay [3] (1000µg/ml aqueous solution).

The record behind these values is patent EP0321274A1, “Derivatives of thioformamide” (RHONE POULENC RORER LIMITED, priority 1987, dated 1989).
